{
  "source": "patent US7381703B2",
  "about": "“Aplidine for multiple myeloma treatment” (Dana-Faber Cancer Institute, Inc., priority 2003, dated 2008)",
  "key": {"[1]": {"system": "non-small-cell lung tumor cells", "conditions": "cited from earlier work"}, "[2]": {"system": "colon CX-1", "conditions": "mice bearing human xenografted tumors; cited from earlier work"}, "[3]": {"system": "primary MM tumor cells co-cultured with BMSCs", "experiment": "Co-culture of MM cells with bone marrow stromal cells, flow cytometry of viable CD138+ cells", "format": "cell-based, human", "conditions": "48 hours, flow-cytometric determination of cell death (FIG. 3)", "quoted_text": "(§2) We therefore investigated whether aplidine can also overcome the molecular sequelae of the interaction of BMSCs with MM cells and achieve anti-MM activity in this context. We thus performed in vitro co-culture assays of MM cells with BMSCs as previously described: BMSCs were grown on 24-well plates to confluency. […] Flow cytometric analysis was performed to detect the CD138+ population of viable MM cells and the effect of aplidine on MM cell viability was expressed as % of viable cell numbers in comparison to the respective vehicle-treated cultures."}, "[4]": {"system": "primary MM tumor cells", "experiment": "MTT survival assay, combination with doxorubicin", "format": "cell-based, human", "conditions": "aplidine 2 nM with doxorubicin 10 ng/mL, primary MM tumor sample (FIG. 5)"}, "[5]": {"system": "multiple myeloma line overexpressing Bcl-2", "experiment": "XTT or MTS cell viability assay, Bcl-2 overexpressing MM line", "format": "cell-based", "conditions": "cells in culture, XTT or MTS (FIG. 7)", "experimental": "Aplidine was tested against various established cells in culture."}, "[6]": {"system": "human MM cell lines", "experiment": "MTT colorimetric survival assay, panel of MM cell lines", "format": "cell-based", "conditions": "for the overwhelming majority of the MM cell lines of the panel (FIG. 1), read-out: IC50 doses", "experimental": "(§1) Cell survival was examined using the 3-(4,5-dimethylthiazol-2-yl)-2,5-diphenyltetrazolium bromide (MTT; Sigma Chemical, St Louis, Mo.) colorimetric assay, as previously described (Mitsiades C. S. et al. Blood. 2001, 98, 795-804; Mitsiades N. et al. Proc Natl Acad Sci USA. 2002, 99, 14374-14379; Mitsiades N. et al. Blood. 2003, 101, 2377-2380). Briefly, cells were plated in 48-well plates at 70% to 80% confluence in the presence of 2.5% fetal bovine serum (FBS) and in the presence of Aplidine at final concentration of 0-100 nM or DMSO vehicle control. At the end of each treatment, cells were incubated with 1 mg/mL MTT for 4 hours at 37° C.; a mixture of isopropanol and 1 N HCl (23:2, vol/vol) was then added under vigorous pipetting to dissolve the formazan crystals. Dye absorbance (A) in viable cells was measured at 570 nm, with 630 nm as a reference wavelength. Cell viability was estimated as a percentage of the value of untreated controls. All experiments were repeated at least 3 times, and each experimental condition was repeated at least in triplicate wells in each experiment. Data reported are average values±SD of representative experiments. […]"}, "[7]": {"conditions": "phase I/II trials; cited from earlier work"}, "[8]": {"system": "NCI human in vitro panel cell lines", "conditions": "cited from earlier work"}, "[9]": {"system": "breast MX-1", "conditions": "mice bearing human xenografted tumors; cited from earlier work"}, "[10]": {"system": "primary MM tumor cells", "experiment": "MTT survival assay, primary MM tumor cells", "format": "cell-based, human", "conditions": "10 primary tumor specimens from multi-drug resistant MM patients; 20 nM for 48 hrs (FIG. 2)", "experimental": "as §1"}, "[11]": {"system": "MM-1S human MM cells stably transfected with myristoylated Akt", "experiment": "MTT survival assay, myrAkt-transfected MM-1S cells", "format": "cell-based", "conditions": "myrAkt-transfected MM-1S cells (FIG. 1)", "experimental": "as §1"}, "[12]": {"system": "bladder carcinoma", "conditions": "bladder carcinoma in the hollow fiber; cited from earlier work"}, "[13]": {"system": "VEGF secretion", "experiment": "Quantification of VEGF secretion by ELISA", "format": "cell-based, human", "conditions": "20 nM", "source_text": "MM cell adhesion to BMSCs induces increased secretion of angiogenic cytokines, such as vascular endothelial growth factor (VEGF), an event deemed of major significance for the recruitment of new blood vessels at the sites of MM cells in the BM milieu. […] The supernatants were collected and assayed for VEGF concentration by enzyme-linked immunosorbent assay (ELISA) using a commercially available kit (VEGF ELISA kit; R&D Systems), according to the instructions of the manufacturer."}, "[14]": {"system": "colon tumor cells", "conditions": "cited from earlier work"}, "[15]": {"system": "multiple myeloma lines resistant to dexamethasone (MM 1.R)", "conditions": "cells in culture, XTT or MTS (FIG. 6)", "quoted_text": "The cells used were: • multiple myeloma cells (MM1.S) • multiple myeloma lines resistant to dexamethasone (MM 1.R) • a multiple myeloma line overexpressing Bcl-2\nFor established cell lines, cells were plated in 96 well plates and allowed to grow for 24 h prior to addition of drugs. Cells were incubated with drug for indicated times and cell viability was measured by the XTT or MTS assay using an automated plate reader."}, "[16]": {"system": "gastric, prostate and Burkitts lymphoma human xenografts", "conditions": "subcutaneous implanted gastric; cited from earlier work"}, "[17]": {"system": "B16 melanoma", "conditions": "murine tumors such as B16 melanoma; cited from earlier work"}, "[18]": {"system": "BMSCs", "conditions": "at the aplidine doses used in the co-culture", "quoted_text": "as §2"}, "[19]": {"conditions": "solubilised aplidine; cited from earlier work"}, "[20]": {"system": "MM-1S human MM cells stably transfected with Bcl-2", "experiment": "MTT survival assay, Bcl-2-transfected MM-1S cells", "format": "cell-based", "conditions": "Bcl-2-transfected MM-1S cells (FIG. 1)", "experimental": "as §1"}},
  "note": "pIC50: −log10 of the molar value. Numbered stars: 1 amine (or outer) side, 2 acyl side, 3 side chain; on linkers, the order of the positions; unused ones are H or OH. Bridge positions count the residues as written; N and C are the ends. Square brackets hold non-standard residues; d marks the D form. Peptide text beside a SMILES is read from it. * marks the point of attachment. X1 = CC[C@H](C)[C@@H](N[*:1])[C@@H](O)CC(=O)O[C@H](C(=O)[C@H](C)C(=O)[*:2])C(C)C; NMeY = CN[C@@H](Cc1ccc(O)cc1)C(=O)O; dNMeL = CN[C@H](CC(C)C)C(=O)O; Pyruvoyl = CC(=O)C(=O)*",
  "data": [
    {"compound": "CC[C@H](C)[C@H]1NC(=O)[C@@H](NC(=O)[C@@H](CC(C)C)N(C)C(=O)[C@@H]2CCCN2C(=O)C(C)=O)[C@@H](C)OC(=O)[C@H](Cc2ccc(OC)cc2)N(C)C(=O)[C@@H]2CCCN2C(=O)[C@H](CC(C)C)NC(=O)[C@@H](C)C(=O)[C@H](C(C)C)OC(=O)C[C@@H]1O", "note": "[Aplidine, Dehydrodidemnin B] (Pyruvoyl-P[dNMeL]T[X1]LP[NMeY](Me); ester 3-C)", "values": [
      {"measurement": "pIC50", "setting": "[1]", "value": 9.74},
      {"measurement": "in vivo activity", "setting": "[2]", "value": "confirm activity"},
      {"measurement": "effect of MM-BMSC interaction on in vitro anti-MM activity", "setting": "[3]", "value": "did not significantly attenuate"},
      {"measurement": "responsiveness of MM cells to doxorubicin in combination with Aplidine", "setting": "[4]", "value": "increased responsiveness to doxorubicin"},
      {"measurement": "growth of Bcl-2 overexpressing MM cells", "setting": "[5]", "value": "inhibits growth"},
      {"measurement": "pIC50", "setting": "[6]", "value": "≥ 8.00"},
      {"measurement": "dose-limiting toxicity", "setting": "[7]", "value": "muscular toxicity"},
      {"measurement": "myelosuppression", "setting": "[7]", "value": "remarkable lack of severe myelosuppression"},
      {"measurement": "selectivity in the NCI human in vitro panel", "setting": "[8]", "value": "selectivity for non-small-cell lung cancer (NSCLC), melanoma, ovarian and colorectal cancer cell lines"},
      {"measurement": "in vivo activity", "setting": "[9]", "value": "confirm activity"},
      {"measurement": "in vitro anti-MM activity", "setting": "[10]", "value": "consistent with the results obtained from the testing of our cell line panel"},
      {"measurement": "sensitivity to aplidine vs. empty-vector transfected cells", "setting": "[11]", "value": "did not have lower sensitivity"},
      {"measurement": "in vivo antitumor activity", "setting": "[12]", "value": "in vivo antitumor activity"},
      {"measurement": "VEGF secretion when MM cells are co-cultured with BMSCs", "setting": "[13]; 12-hour treatment, co-culture (FIG. 4B)", "value": "counteract the increase in VEGF secretion"},
      {"measurement": "secretion of VEGF by MM cells", "setting": "[13]; 12-hour treatment, primary MM tumor cells (FIGS. 4A and 4B)", "value": "suppress the secretion of VEGF"},
      {"measurement": "VEGF secretion by BMSCs", "setting": "[13]; 12 hrs, BMSCs (FIG. 4B)", "value": "suppresses the VEGF secretion"},
      {"measurement": "pIC50", "setting": "[14]", "value": 9.35},
      {"measurement": "growth inhibition of dexamethasone resistant MM1.R cells compared with MM1.S", "setting": "[15]", "value": "as effectively as the parenteral line (MM1.S)"},
      {"measurement": "in vivo antitumor activity", "setting": "[16]", "value": "in vivo antitumor activity"},
      {"measurement": "in vivo activity", "setting": "[17]", "value": "in vivo activity"},
      {"measurement": "survival of BMSCs", "setting": "[18]", "value": "did not significantly affect"},
      {"measurement": "degradation under heat and light stress testing conditions", "setting": "[19]", "value": "substantial degradation"},
      {"measurement": "sensitivity to aplidine vs. empty-vector transfected cells", "setting": "[20]", "value": "did not have lower sensitivity"}
    ]}
  ]
}
